Measurements taken from a melting point compilation (Tetko et al.; mined from patent text by program, amines drawn as free bases though some values may be those of a salt).

Structure (SMILES) | melting point [°C]
CCN(CC)C(=O)c1c(OC)ccc2cc(Br)ccc12 | 109 to 110
C[C@H](O)Cn1ccc2cc(F)c(Cl)cc21 | 99 to 101
CC(C)c1cc(C(C)C)c(CC(=O)NS(=O)(=O)Oc2c(C(C)C)cc(C=O)cc2C(C)C)c(C(C)C)c1 | 71 to 76
CSc1cc(C(C)(C)C)c(O)c(-c2nc3ccc(S(=O)(=O)C(F)(F)F)cc3[nH]2)c1C | 210 to 211
Cc1oc(NC(=O)CCl)c(C#N)c1C | 114
NC(=O)c1ccc(S(=O)(=O)NCCC2CCC(CC(=O)O)CC2)cc1 (stereo unspecified) | 172 to 174
O=C(O)C1c2cccnc2NN1C(=O)O (stereo unspecified) | 270 to 285
CCC(CC)(CCS(N)(=O)=O)COc1nn2ncnc2cc1C | 148 to 149
COc1cn(-c2cc(F)c(Br)cc2F)nc(-c2ccnn2-c2ccccc2)c1=O | 211 to 213
CCN1c2ncc(CCc3ccnc(C(=O)OC)c3)cc2C(=O)N(C)c2ccc(Cl)nc21 | 149
COc1cc(C(=O)CCCC2CCCCC2)c(OC)cc1Cl | 80 to 81
CCOC(=O)CN(C=C(C(=O)OCC)C(=O)OCC)N=Cc1ccccc1 | 105 to 106
Cc1ccc(C(=O)c2cccc3c2CCC3=O)cc1 | 105 to 108
COc1nc(C)c2c(c1C#N)CCCC2=O | 128
COC1CN(c2ccc([N+](=O)[O-])cc2F)C1 | 57.5 to 58
C=CCOc1cc(N)c(Cl)cc1C(=O)O | 136 to 137
C=CCN(C=O)c1ccc([N+](=O)[O-])cc1C | 56
CCC1=Nc2nc(C3CCCC3)[nH]c2C2=N[C@H](Cc3ccccc3)CN12 | 187 to 189
O=C(Nc1ccccc1)c1cc(Oc2ccc3c(c2)CCN3C(=O)Nc2cccc(C(F)(F)F)c2)ncn1 | 227 to 229
CC(=O)Nn1cnn(C2CCc3ccccc3C2)c1=S (stereo unspecified) | 199 to 201
Cc1ccc(C(=O)CCCC(C)C(=O)O)cc1 (stereo unspecified) | 50 to 50.5
COc1cc2nc(S(=O)Cc3cccn4ccnc34)[nH]c2cc1OC (stereo unspecified) | 195 to 196
O=C(O)CCCOc1ccc2nc3[nH]c(=O)[nH]c3cc2c1 | > 320
CC(=O)Nc1c(-c2cc(Cl)ccc2O)c2cc(C(F)(F)F)ccc2[nH]c1=O | 222 to 224
O=[N+]([O-])c1ccccc1Sc1ncc[nH]1 | 137 to 138
CC(C)n1nc(-c2cc(C(=O)N3CCOCC3)cnc2-c2ccccc2)ccc1=O | 132 to 133

Structure (SMILES) | melting point [°C]
CCN1c2ncccc2C(N(C)C)=Nc2c(C)cc(C)nc21 | 150 to 152
CCn1cc(C(=O)O)c(=O)c2cc(F)c(N3CCN(C)C(COc4ccccc4)C3)cc21 (stereo unspecified) | 202 to 204
COc1cccc2c1CN(Cc1c[nH]c3ccccc13)C2 | 176 to 179
CN(C(=O)Nc1nc(OCC(F)(F)F)nc(OCC(F)(F)F)n1)c1ccc(C(F)(F)F)cc1 | 130 to 132
C=C[C@@H]1O[C@](C#CC2CC2)(C(F)(F)F)c2c(ccc(F)c2F)NC1=O (relative stereo) | 171 to 172
O=C(O)CCc1cn(Cc2ccc(OCc3ccc(-c4ccccc4)nc3)cc2)nc1-c1ccccc1 | 155 to 156
COc1ccc(-c2cc(C3CCN(C(=O)c4ccccc4)CC3)nc(N)n2)cc1 | 165 to 166
Cc1cccc(-c2[nH]nnc2-c2ccc3c(c2)N(CCN2CCOCC2)C(=O)CO3)n1 | 150
Cc1ccsc1C(Cc1ccccc1O)N(C)C=O (stereo unspecified) | 142 to 144
COc1ccc2c(-c3ccccc3F)csc2c1Cl | 136 to 137
CC(C)=CCN1Cc2c(Cl)ccc3[nH]c(=S)n(c23)C[C@@H]1C | 160
C[C@@H]1Cc2cc3c(cc2C(c2ccc([N+](=O)[O-])c(Cl)c2)=NN1C(=S)NN)OCO3 | 126 to 127
CCCCC1NC(/C=C(\Cc2cccs2)C(=O)O)=CN1Cc1ccc(C(=O)O)c(-c2ccccc2)c1 (stereo unspecified) | 158 to 161
CCOC(=O)C(=Cc1cccn2cc(C)nc12)N=[N+]=[N-] | 121 to 123
CCc1nc2c(N)nc3ccccc3c2n1CCCCSC | 183 to 186
CN(C(=O)Nc1ccccc1)c1cccc(-c2ccc(CC3SC(=O)NC3=O)cc2)c1 (stereo unspecified) | 183
Oc1ccc2c(c1)CCN(Cc1ccc3c(c1)OCO3)C2 | 169 to 172
CC(C)(C)OC(=O)N1C[C@@H](CC(=O)COCC[Si](C)(C)C)[C@H]2NC(=O)[C@H]21 | 89 to 91
CCOC(=O)CCCC(=O)CNC(=O)c1csc(NC(=O)NCc2ccccc2)n1 | 135 to 136
COC(=O)CP(=O)(O)C(CCCc1ccccc1)NC(=O)OCc1ccccc1 (stereo unspecified) | 107 to 109
C[C@H](NC(=O)OC(C)(C)C)[C@@H]1CCN(c2nc3c(cc2F)c(=O)n(N)c(=O)n3C2CC2)C1 | 175 to 177
Cc1ccc2c(c1)c(C)c1n2C(=O)C(Cc2nc[nH]c2C)CC1 (stereo unspecified) | 255 to 258
Cc1cc2c(c3c1NC(=O)CC3)O[C@@H](CN)[C@H]2C (racemic) | > 300
CCOC(=O)c1c(N2CCN(C)CC2)c2cc(F)ccc2n(Cc2ccccc2)c1=O | 156
CC(C)c1nn(-c2ccccn2)cc1CCCOc1ccccc1CC(=O)O | 140 to 142
